Common to all, as to assay: In Vitro Anti-Bacterial Activity Test (MIC, agar dilution)
What all share (assay type): cell-based
For orientation: In agar dilution the substance is mixed into plates at graded concentrations.

Assay [1] deals with Klebsiella aerogenes 1522E. The conditions noted are these: Klebsiella aerogenes, 1522E, 18 h, Klebsiella aerogenes 1522E; Muller-Hinton agar, 37° C., 18 hours; read-out: MIC. The essentials: (§1)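 Minimum inhibitory concentrations were determined by dilution of test compounds in Muller-Hinton agar, onto which 10^7 C.F.U./ml bacterial suspensions were inoculated and incubated at 37° C. for 18 hours.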

For assay [2], the system named is Staphylococcus aureus SG511. As to conditions: Staphylococcus aureus SG511; Muller-Hinton agar, 37° C., 18 hours; read-out: MIC. The essentials: as §1
For assay [3], the system named is Pseudomonas aeruginosa 1771. The conditions noted are these: Pseudomonas aeruginosa 1771; Muller-Hinton agar, 37° C., 18 hours; read-out: MIC. The gist of the method: as §1
For assay [4], the system named is Pseudomonas aeruginosa 1592E. As to conditions: Muller-Hinton agar, 37° C., 18 hours, read-out: MIC. The gist of the method:
as §1

For a further assay, the system named is Enterobacter cloacae P99. As to conditions: Enterobacter cloacae, P99, 18 h. The gist of the method:
as §1

The test system of assay [5] is Enterobacter cloacae 1321E. The gist of the method:
as §1

The subject of the next assay is Escherichia coli DC2. As to conditions: Escherichia coli, DC2, 18 h. The essentials: as §1
Assay [6] deals with Staphylococcus aureus 285. As to conditions: Staphylococcus aureus, 285, 18 h, Staphylococcus aureus 285; Muller-Hinton agar, 37° C., 18 hours; read-out: MIC. The essentials:
as §1

Assay [7] concerns Streptococcus pyogenes 77A. As to conditions: Streptococcus pyogenes 77A; Muller-Hinton agar, 37° C., 18 hours; read-out: MIC. The gist of the method: as §1
The test system of a further assay is Escherichia coli 078. The essentials:
as §1

The next assay relates to Escherichia coli DC0. As to conditions: Muller-Hinton agar, 37° C., 18 hours, read-out: MIC. The essentials: as §1
In assay [8] the test system is Staphylococcus aureus 503. As to conditions: Staphylococcus aureus 503; Muller-Hinton agar, 37° C., 18 hours; read-out: MIC. The essentials: as §1
The subject of assay [9] is Streptococcus faecium MD8b. The conditions noted are these: Enterococcus faecium, Muller-Hinton agar, 37° C., 18 hours, read-out: MIC. The gist of the method: as §1
Another assay has as its system Klebsiella oxytoca 1082E. The conditions noted are these: Klebsiella oxytoca 1082E; Muller-Hinton agar, 37° C., 18 hours; read-out: MIC. The gist of the method: as §1
Assay [10] has as its system Pseudomonas aeruginosa 1771M. As to conditions: Pseudomonas aeruginosa, 1771M, 18 h, Muller-Hinton agar, 37° C. The gist of the method: as §1
Assay [11] relates to Pseudomonas aeruginosa 9027. The conditions noted are these: Muller-Hinton agar, 37° C., 18 hours, read-out: MIC. The gist of the method:
as §1

The subject of the next assay is Salmonella typhimurium. The conditions noted are these: Salmonella enterica; Salmonella typhimurium; Muller-Hinton agar, 37° C., 18 hours; read-out: MIC. The essentials: as §1
The test system of assay [12] is Streptococcus pyogenes 308A. As to conditions: Muller-Hinton agar, 37° C., 18 hours, read-out: MIC. The gist of the method: as §1
For the next assay, the system named is Escherichia coli TEM. As to conditions: Escherichia coli, 18 h, Muller-Hinton agar, 37° C. The gist of the method:
as §1

The next assay deals with Escherichia coli 1507E. As to conditions: Escherichia coli, 1507E, 18 h, Muller-Hinton agar, 37° C. The gist of the method: as §1
The mark [13] stands for this setting: Enterobacter cloacae 1321E, Muller-Hinton agar, 37° C., 18 hours, read-out: MIC.
[14] abbreviates: Escherichia coli 078, Muller-Hinton agar, 37° C., 18 hours, read-out: MIC.

Counter-ions that a name gives are not always drawn. Like-named read-outs stand apart in the source and are kept apart here.

On to `CCOC(=O)C(C(=O)OCC)C(=O)c1cn(C2CC2)c2c(F)c(N3CCC(N)C3)c(F)cc2c1=O` (stereo not drawn) [Example 20, 1-cyclopropyl-6,8-difluoro-7-(3-aminopyrrolidin-1-yl)-3-(2,2-diethoxycarbonylacetyl)-1,4-dihydro-4-oxoquinoline hydrochloride], for which the MIC (in general, the lowest concentration that inhibits growth of the organism) in assay [1] is 0.025 µg/mL; in [2], 0.013 µg/mL; in assay [3] it was 0.195 µg/mL; in [4], 0.195 µg/mL; in the assay with Enterobacter cloacae P99, less than 0.002 µg/mL; in assay [5] (setting [13]), less than 0.002 µg/mL. In addition, the MIC in the assay on Escherichia coli DC2 was 0.013 µg/mL; in [6] it was 0.013 µg/mL; in assay [7], 0.098 µg/mL; in the assay with Escherichia coli 078 (setting [14]) it was less than 0.002 µg/mL; with Escherichia coli DC0, 0.098 µg/mL; in [8], 0.025 µg/mL. The MIC in assay [9] is 0.098 µg/mL; in the assay on Klebsiella oxytoca 1082E, less than 0.002 µg/mL; in assay [10], 0.098 µg/mL; in [11], 0.391 µg/mL; in the assay on Salmonella typhimurium it was less than 0.002 µg/mL; in [12], 0.391 µg/mL. For the same compound, the minimal inhibitory concentration (MIC) in the assay on Escherichia coli TEM was less than 0.002 µg/mL; against Escherichia coli 1507E, 0.007 µg/mL.
Consider `CS(=O)(=O)CC(=O)c1cn(C2CC2)c2c(Cl)c(N3CCC(N)C3)c(F)cc2c1=O` (stereo not drawn) [Example 33, 1-cyclopropyl-6-fluoro-8-chloro-7-(3-aminopyrrolidin-1-yl)-3-(2-methanesulfonylacetyl)-1,4-dihydro-4-oxoquinoline hydrochloride], for which the MIC is 0.391 µg/mL in [1]; 1.56 µg/mL in assay [2]; 1.56 µg/mL in assay [3]; 1.56 µg/mL in [4]; 0.195 µg/mL against Enterobacter cloacae P99; 0.098 µg/mL in assay [5] (setting [13]). Further, the MIC was determined as 0.098 µg/mL in the assay on Escherichia coli DC2; 1.56 µg/mL in assay [6]; 3.12 µg/mL in assay [7]; 0.195 µg/mL in the assay on Escherichia coli 078 (Escherichia coli, 078, 18 h); 0.195 µg/mL in the assay on Escherichia coli DC0; 0.781 µg/mL in assay [8]. The minimal inhibitory concentration (MIC) in assay [9] is 6.25 µg/mL; in the assay on Klebsiella oxytoca 1082E, 0.391 µg/mL; in assay [10], 0.781 µg/mL; in assay [11], 1.56 µg/mL; in the assay on Salmonella typhimurium, 0.781 µg/mL; in assay [12], 3.12 µg/mL. The values for the minimal inhibitory concentration (MIC) with Escherichia coli TEM and against Escherichia coli 1507E were 0.098 µg/mL and 0.195 µg/mL, respectively.
Turning to `CN[C@H]1CCN(c2c(F)cc3c(=O)c(C(=O)C[N+](=O)[O-])cn(C4CC4)c3c2Cl)C1` [Example 62, 1-cyclopropyl-6-fluoro-8-chloro-7-(3-3S-methylaminopyrrolidin-1-yl)-3-(2-nitroacetyl)-1,4-dihydro-4-oxoquinoline hydrochloride], the MIC in [1] was determined as 0.007 µg/mL; in assay [2], 0.013 µg/mL; in [3], 0.098 µg/mL; in [4] it was 0.098 µg/mL; against Enterobacter cloacae P99 it was 0.007 µg/mL; in assay [5] (Enterobacter cloacae, 1321E, 18 h), 0.007 µg/mL. Further, the MIC against Escherichia coli DC2 is 0.013 µg/mL; in assay [6], 0.025 µg/mL; in assay [7], 0.049 µg/mL; with Escherichia coli 078 (setting [14]), less than 0.002 µg/mL; in the assay with Escherichia coli DC0 it was 0.025 µg/mL; in assay [8], 0.013 µg/mL. Moreover, the MIC in assay [9] is 0.049 µg/mL; in the assay on Klebsiella oxytoca 1082E, less than 0.002 µg/mL; in assay [10] it was 0.098 µg/mL; in [11] it was 0.195 µg/mL; with Salmonella typhimurium, 0.025 µg/mL; in assay [12], 0.098 µg/mL. Moreover, the MIC against Escherichia coli TEM and in the assay on Escherichia coli 1507E was 0.007 µg/mL in each case.

For the origin of these results see US5409933A, “Quinoline derivatives and processes for preparing the same” (priority 1993, dated 1995).
